The text below walks through data of US9238602B1, “Process for the preparation of cis-2,2,4,4-tetramethylcyclobutane-1,3-diol” (Eastman Chemical Company, priority 2014, dated 2016).

The nature of the data set: cis/trans 2,2,4,4-tetramethylcyclobutane-1,3-diol solubility ratio (cis isomer solubility limit divided by trans isomer solubility limit). The class given is physicochemical. The protocol:
The definition of cis/trans 2,2,4,4-tetramethylcyclobutane-1,3-diol solubility ratio is also known to one of ordinary skill in the art; in one embodiment, the cis/trans 2,2,4,4-tetramethylcyclobutane-1,3-diol solubility ratio can be defined as the ratio of the cis isomer solubility limit divided by the trans isomer solubility limit at a given temperature for a given solvent or solvents. For example, the cis/trans solubility ratio in water at 80° C. is about 1.0. For MIBC, the cis/trans solubility ratio at 80° C. is about 0.74.

As to `CC1(C)C(O)C(C)(C)C1O` (centres unmarked) [2,2,4,4-tetramethylcyclobutane-1,3-diol], the cis/trans solubility ratio entry reads like this: (in MIBC (methyl isobutyl carbinol) at 80° C.) “about 0.74”; (in water at 80° C.) “about 1.0”.
